From ChEMBL document CHEMBL3046506 (2006) come the findings set out here.

Bounds are passed on as bounds.

In test [1] the test system is Pyricularia oryzae. Put plainly: Antifungal activity against wild type Magnaporthe oryzae Hoku-1 in rice seedlings assessed as preventive value of rice blast at 5 ug/ml systemic application at 22 to 30 degC by pot test. The class given is functional.
For test [2], the system named is Pyricularia oryzae. The test is described as follows: Antifungal activity against wild type Magnaporthe oryzae Hoku-1 in rice seedlings assessed as preventive value of rice blast at 5 ug/ml foliar spray at 26 degC by pot test. The class given is functional.

As to `CCC1(C(=O)NCCc2cnc(Cl)s2)C(C)C1(Cl)Cl` (stereo not given), the Activity in test [1] and in test [2] was 40% each time.

Take `CC1C(Cl)(Cl)C1(C)C(=O)NCCc1csc(Cl)c1` (stereo not given): the Activity in test [1] and in test [2] was 40% each time.

For the compound `CC1(C)C(C(=O)NCCc2csc(Cl)c2)C1(Cl)Cl` (stereo not given), the Activity in test [1] and in test [2] was below 40% in each case.

In the case of `CC1(C)C(Cl)(Cl)C1(C)C(=O)NCCc1csc(Cl)c1` (stereo not given), the Activity in test [1] and in test [2] was 40% throughout.

Take `CC(C)C1(C(=O)NCCc2csc(Cl)c2)CC1(Cl)Cl` (stereo not given): the Activity in test [1] and in test [2] was 40% in each case.

Consider `CCCC1(C(=O)NCCc2csc(Cl)c2)CC1(Cl)Cl` (stereo not given), for which the Activity in test [1] and in test [2] was below 40% each time.

As to `CC(C)(C)C(C#N)C(=O)NCCc1csc(Cl)c1` (stereo not given), the figures for the Activity in test [1] and in test [2] were 65% and 40%, respectively.

`CC(C)(C)C(Cl)C(=O)NCCc1csc(Cl)c1` (stereo not given): the Activity in test [1] and in test [2] was 40% throughout.

Take `CC(C)(C)C(Br)C(=O)NCCc1csc(Cl)c1` (stereo not given): the Activity in test [1] and in test [2] was 40% in each case.

Turning to `CCC1(C(=O)NCCc2ccc(F)cc2F)C(C)C1(Cl)Cl` (stereo not given), the Activity in test [1] and in test [2] was 40% each time.

Regarding `CCC1(C(=O)NCCc2ccc(C(F)(F)F)cc2)C(C)C1(Cl)Cl` (stereo not given), the Activity in test [1] and in test [2] was 40% each time.

As to `CCC1(C(=O)NCCc2ccccc2Cl)C(C)C1(Cl)Cl` (stereo not given), the Activity in test [1] and in test [2] was 40% each time.

As for `CCC1(C(=O)NCCc2cccc(Cl)c2)C(C)C1(Cl)Cl` (stereo not given), the Activity in test [1] and in test [2] was 40% each time.

Consider `CCC1(C(=O)NCCc2ccc(Cl)cc2Cl)C(C)C1(Cl)Cl` (stereo not given), for which the Activity in test [1] and in test [2] was 40% in each case.

Consider `CCC1(C(=O)NCCc2ccc(Cl)c(Cl)c2)C(C)C1(Cl)Cl` (stereo not given), for which the Activity in test [1] and in test [2] was 40% in each case.

Take `CCC1(C(=O)NCCc2ccc(Br)cc2)C(C)C1(Cl)Cl` (stereo not given): the Activity is on record as below 40% in test [1] and “<=40%” in test [2].

Turning to `CCC1(C(=O)NCCc2ccc(C)cc2)C(C)C1(Cl)Cl` (stereo not given), the Activity in test [1] and in test [2] was below 40% throughout.

Consider `CCC1(C(=O)NCCc2ccsc2)C(C)C1(Cl)Cl` (stereo not given), for which the Activity entry in test [1] is given as “<=40%”; in test [2], 40%.

On to `CCC1(C(=O)NCCc2csc(Cl)c2)C(C)C1(Cl)Cl` (stereo not given), for which the Activity in test [1] and in test [2] was 65% in each case.

Turning to `CCC1(C(=O)NCCc2cc(Cl)cs2)C(C)C1(Cl)Cl` (stereo not given), the Activity in test [1] and in test [2] was 40% in each case.

On to `CCC1(C(=O)NCCc2ccc(Cl)s2)C(C)C1(Cl)Cl` (stereo not given), for which the Activity in test [1] and in test [2] was 40% throughout.

With `CCC1(C(=O)NCCc2csc(Br)c2)C(C)C1(Cl)Cl` (stereo not given), the results for the Activity in test [1] and in test [2] were below 40% and 40%, respectively.

On to `CCC1(C(=O)NCCc2cc(Cl)sc2Cl)C(C)C1(Cl)Cl` (stereo not given), for which the Activity is below 40% in test [1] and 40% in test [2].

Consider `CCC1(C(=O)NCCc2cc(Cl)c(Cl)s2)C(C)C1(Cl)Cl` (stereo not given), for which the Activity in test [1] is 40%; in test [2] it was “<=40%”.

For the compound `CCC1(C(=O)NC(C)c2cc(Cl)cs2)C(C)C1(Cl)Cl` (stereo not given), the Activity entry in test [1] and in test [2] was “<=40%” in each case.

Regarding `CCC1(C(=O)NC(C)c2ccc(Cl)s2)C(C)C1(Cl)Cl` (stereo not given), the Activity result in test [1] and in test [2] was “<=40%” in each case.

`CCC1(C(=O)NC(C)c2csc(Cl)c2)C(C)C1(Cl)Cl` (stereo not given): the Activity in test [1] is listed as 40%; in test [2], “<=40%”.

For `CCC1(C(=O)NC(C)c2cc(Cl)c(Cl)s2)C(C)C1(Cl)Cl` (stereo not given), the Activity result is “<=40%” in test [1] and 40% in test [2].

`CCC1(C(=O)NCCc2csc(Cl)n2)C(C)C1(Cl)Cl` (stereo not given): the Activity in test [1] and in test [2] was 40% in each case.

For the compound `CCC1(C(=O)NC(C)C)C(C)C1(Cl)Cl` (stereo not given), the Activity in test [1] and in test [2] was below 40% throughout.

For `CCC(C)NC(=O)C1(CC)C(C)C1(Cl)Cl` (stereo not given), the Activity in test [1] and in test [2] was below 40% throughout.

For the compound `CCC1(C(=O)NCCC(F)(F)F)C(C)C1(Cl)Cl` (stereo not given), the Activity in test [1] and in test [2] was below 40% each time.

Take `CCC1(C(=O)NC(C)C2CCC2)C(C)C1(Cl)Cl` (stereo not given): the Activity in test [1] and in test [2] was below 40% each time.

`CCC1(C(=O)NC(C)C2CCCC2)C(C)C1(Cl)Cl` (stereo not given): the Activity is listed as 40% in test [1] and below 40% in test [2].

With `CCC1(C(=O)NC(C)C2CCCCC2)C(C)C1(Cl)Cl` (stereo not given), the Activity in test [1] and in test [2] was below 40% each time.

As to `CCC1(C(=O)NC(C)C2CCCCCC2)C(C)C1(Cl)Cl` (stereo not given), the Activity in test [1] and in test [2] was below 40% in each case.

As for `CCC1(C(=O)Nc2ccc(Cl)cc2)C(C)C1(Cl)Cl` (stereo not given), the Activity in test [1] and in test [2] was below 40% throughout.

Consider `CCC1(C(=O)NCc2ccc(Cl)cc2)C(C)C1(Cl)Cl` (stereo not given), for which the figures for the Activity in test [1] and in test [2] were 40% and “<=40%”, respectively.

For `CCC1(C(=O)NCCc2ccc(Cl)cc2)C(C)C1(Cl)Cl` (stereo not given), the Activity in test [1] and in test [2] was 40% each time.

For the compound `CCC1(C(=O)NCCCc2ccc(Cl)cc2)C(C)C1(Cl)Cl` (stereo not given), the Activity in test [1] and in test [2] was 40% each time.

For the compound `CCC(NC(=O)C1(CC)C(C)C1(Cl)Cl)c1ccc(Cl)cc1` (stereo not given), the Activity in test [1] is recorded as below 40%; in test [2], “<=40%”.

`CCC1(C(=O)NCC(C)c2ccc(Cl)cc2)C(C)C1(Cl)Cl` (stereo not given): the Activity in test [1] and in test [2] was 40% each time.

Regarding `CCC1(C(=O)NC(C)Cc2ccc(Cl)cc2)C(C)C1(Cl)Cl` (stereo not given), the Activity in test [1] and in test [2] was below 40% in each case.

`CCC1(C(=O)NCCc2ccc(F)cc2)C(C)C1(Cl)Cl` (stereo not given): the Activity in test [1] and in test [2] was 40% in each case.

As to `CC[C@@]1(C(=O)N[C@H](C)c2ccc(Cl)cc2)[C@@H](C)C1(Cl)Cl` (mixture of isomers) [CARPROPAMIDE], the Activity in test [1] and in test [2] was above 90% each time.
